{
  "source": "paper PMC8482806",
  "about": "“A Novel Blood-Brain Barrier-Permeable Chemotherapeutic Agent for the Treatment of Glioblastoma” (Cureus, 2021)",
  "key": {"[1]": {"target": "T1, hLAT1 (Homo sapiens, UniProt Q01650)", "T1 construct": "host or cells: LLC-PK1 (tetracycline-inducible, Invitrogen Gateway pT-REx System)", "T1 sequence (Q01650 whole entry)": "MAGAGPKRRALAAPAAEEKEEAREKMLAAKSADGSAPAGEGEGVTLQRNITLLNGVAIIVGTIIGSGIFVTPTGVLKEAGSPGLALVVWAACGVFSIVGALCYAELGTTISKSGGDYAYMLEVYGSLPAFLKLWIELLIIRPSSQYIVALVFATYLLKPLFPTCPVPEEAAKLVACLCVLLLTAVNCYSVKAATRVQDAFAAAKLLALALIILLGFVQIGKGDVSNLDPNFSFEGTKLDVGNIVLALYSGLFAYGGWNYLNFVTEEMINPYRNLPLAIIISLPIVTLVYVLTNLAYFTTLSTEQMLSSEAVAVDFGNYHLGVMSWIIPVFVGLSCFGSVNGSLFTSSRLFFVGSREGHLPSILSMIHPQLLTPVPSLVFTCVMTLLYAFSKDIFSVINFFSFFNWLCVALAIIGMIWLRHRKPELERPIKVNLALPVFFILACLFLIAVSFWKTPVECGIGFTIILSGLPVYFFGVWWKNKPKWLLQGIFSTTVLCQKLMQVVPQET", "T1 sequence (P08195 102-630 partner)": "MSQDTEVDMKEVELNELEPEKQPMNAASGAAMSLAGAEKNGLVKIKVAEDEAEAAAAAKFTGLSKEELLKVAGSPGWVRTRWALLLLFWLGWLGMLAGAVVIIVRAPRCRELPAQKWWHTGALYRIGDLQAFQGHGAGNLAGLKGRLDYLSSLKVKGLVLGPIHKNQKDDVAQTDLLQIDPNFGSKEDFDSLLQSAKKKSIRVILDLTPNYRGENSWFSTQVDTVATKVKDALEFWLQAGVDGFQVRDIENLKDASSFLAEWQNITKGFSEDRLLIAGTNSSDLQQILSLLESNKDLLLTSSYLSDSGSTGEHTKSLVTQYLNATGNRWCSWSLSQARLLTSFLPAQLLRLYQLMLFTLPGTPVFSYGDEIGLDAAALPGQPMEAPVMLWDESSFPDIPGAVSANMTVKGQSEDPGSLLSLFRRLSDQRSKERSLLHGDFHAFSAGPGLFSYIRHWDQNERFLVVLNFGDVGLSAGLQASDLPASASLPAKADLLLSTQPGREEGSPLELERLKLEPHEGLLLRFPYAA", "experiment": "Substrate transport inhibition, [3H]-gabapentin uptake in LLC-PK1 cells expressing hLAT1", "format": "cell-based", "protocol": "Substrate transport inhibition studies were conducted with LLC-PK1 cells inducibly expressing either hLAT1 or hLAT2. Cells were plated in growth media with 1 μg/mL doxycycline at 30,000 cells/well in 96-well plates. Sixteen hours after plating, cells were treated with butyrate at a final concentration of 5 mM. The following day, cells were washed with PBS and incubated in the presence or absence of various concentrations of QBS10072S with 30,000 cpm/well of either [3H]-gabapentin (LAT1) or [3H]-leucine (LAT2) in PBS for 15 minutes at room temperature. The non-specific cell-bound activity was determined by the addition of 5 mM unlabeled gabapentin (LAT1) or leucine (LAT2). Unincorporated radioactivity was removed, and cells were washed three times with ice-cold PBS. Cells were lysed by adding scintillation fluid to each well, and cell-associated radioactivity was determined via scintillation counting using a multichannel 96-well plate reader (MicroBeta Trilux, Perkin Elmer, Waltham, MA). Data were expressed as the percent of specific radioactivity uptake in wells with no compound added. LC50s were determined by non-linear curve-fitting using GraphPad Prism (San Diego, CA)."}, "[2]": {"tested_on": "U251 cells", "experiment": "Cell viability assay (CellTiter-Glo), U251", "format": "cell-based", "details": "Homo sapiens, U-251; Cell Line: U251; read-out: LC50 (μM ± SD)", "protocol": "In vitro activity of QBS10072S was assessed using a modified clonogenic cell viability assay in 96-well clear-bottom plates. For the LLC-PK1 inducible LAT1-expressing cell line, 1000 cells/well were plated and cells were treated with either butyrate alone (non-induced) or with both butyrate and doxycycline (induced) as described above. For GBM cell lines, 2000 cells/well were plated. On day 2 (GBM) or day 3 (LLC-PK1) after original plating, cells were washed twice with PBS and incubated with 50 μL of various concentrations of QBS10072S in PBS in at least quadruplicate. After 30 minutes at 37°C, 200 μL of growth medium was added to each well. Clonal populations were allowed to grow until the control wells (mock treatment) were near confluence (7 to 10 days). At this point, 170 μL media were removed and 60 μL CellTiter-Glo® (Promega, Madison, WI) were added to each well. Plates were placed on an orbital shaker for three minutes to lyse the cells and then incubated for an additional 10 minutes at RT to stabilize the luminescent signal. Luminescence was recorded using an EnSpire® Multimode Plate Reader (Perkin Elmer). Background (luminescence from wells incubated with 100 μM melphalan or lomustine) was subtracted and data were normalized to the control. EC50s were determined by non-linear regression using GraphPad Prism."}, "[3]": {"experiment": "Cytotoxicity in normal human astrocytes (CellTiter-Glo)", "format": "cell-based", "details": "normal human astrocytes (NHA), read-out: LC50", "description": "In vitro activity of QBS10072S was assessed using a modified clonogenic cell viability assay in 96-well clear-bottom plates. […] For GBM cell lines, 2000 cells/well were plated. On day 2 (GBM) or day 3 (LLC-PK1) after original plating, cells were washed twice with PBS and incubated with 50 μL of various concentrations of QBS10072S in PBS in at least quadruplicate. After 30 minutes at 37°C, 200 μL of growth medium was added to each well. Clonal populations were allowed to grow until the control wells (mock treatment) were near confluence (7 to 10 days). At this point, 170 μL media were removed and 60 μL CellTiter-Glo® (Promega, Madison, WI) were added to each well. Plates were placed on an orbital shaker for three minutes to lyse the cells and then incubated for an additional 10 minutes at RT to stabilize the luminescent signal. Luminescence was recorded using an EnSpire® Multimode Plate Reader (Perkin Elmer). Background (luminescence from wells incubated with 100 μM melphalan or lomustine) was subtracted and data were normalized to the control. EC50s were determined by non-linear regression using GraphPad Prism.\nCells were incubated with a titration of QBS10072S or melphalan and cell viability was measured by CellTiter-Glo. LC50 values for each compound were determined."}, "[4]": {"tested_on": "phosphorylation of H2AX in U251 cells", "experiment": "Phosphorylation of γ-H2AX assay (immunoblot), U251", "format": "cell-based, human", "details": "U251, 16 hours", "protocol": "(§1) U251 or normal human astrocyte cells were plated in six-well plates and incubated with various concentrations of QBS10072S for 16 hours. Proteins were extracted from cells using cell lysis buffer (Cell Signaling Technologies, Danvers, MA) supplemented with proteinase and a phosSTOP phosphatase inhibitor cocktail (Sigma-Aldrich, St. Louis, MO). Proteins were separated by SDS-PAGE and transferred onto polyvinylidene difluoride membranes, which were then probed with primary antibodies followed by horseradish peroxidase-conjugated secondary antibody, and visualized by ECL (Thermo-Fischer, S. San Francisco, CA). Antibodies specific for γH2AX (#2577), LAT1 (#5347), and beta-actin (#4970) were obtained from Cell Signaling Technologies."}, "[5]": {"tested_on": "phosphorylation of H2AX in LN229 cells", "experiment": "Phosphorylation of γ-H2AX assay (immunoblot), LN229", "format": "cell-based, human", "details": "LN229, 16 hours"}, "[6]": {"tested_on": "phosphorylation of H2AX in normal human astrocytes", "experiment": "Phosphorylation of γ-H2AX assay (immunoblot), normal human astrocytes", "format": "cell-based", "details": "NHAs, basal LAT1 undetectable, 16 hours", "protocol": "as §1"}, "[7]": {"experiment": "Tolerability in non-tumor-bearing nude mice", "format": "in vivo, mouse", "details": "5 or 10 mg/kg IV once a week for four weeks", "protocol": "The tumor-suppressive activity of QBS10072S was evaluated in two orthotopic murine models of GBM using luciferase-expressing U251 and LN229 cell lines. Tumor volume was monitored by BLI measurement. The tolerability of QBS10072S was first tested by dosing 5 or 10 mg/kg IV once a week for four weeks into non-tumor-bearing nude mice (Figure 6). The body weights and white blood cell counts were not affected by this treatment, so QBS10072S was tested at various doses up to 10 mg/kg in the GBM models.\nFigure 6 Tolerability of QBS10072S in nude mice Non-tumor-bearing nude mice were dosed IV with vehicle or QBS10072S (5 or 10 mg/kg) once a week for four weeks (arrows). Body weights were measured every three days and complete blood counts were determined once a week for seven weeks. A: Percent change in body weight over the course of the study, normalized to pre-dose weight. B: White blood cell (WBC) counts for each study arm. Horizontal bars represent the normal range of WBCs in these mice."}, "[8]": {"tested_on": "LN229 intracerebral human GBM xenograft", "experiment": "LN229 intracerebral human GBM xenograft in athymic mice (BLI, survival)", "format": "in vivo, mouse", "details": "for median survival time: vehicle 56; for %TGI: day 53, three doses", "protocol": "Five-week-old female athymic mice (nu/nu, homozygous: Simonsen Laboratories, Gilroy, CA), housed under aseptic conditions, received intracranial tumor cell injection as previously described and as approved by the University of California San Francisco Institutional Animal Care and Use Committee, Protocol #: AN111064-03. Briefly, mice were anesthetized by intraperitoneal injection of ketamine (100 mg/kg) and xylazine (10 mg/kg) and injected with 3 μL of tumor cell suspension (300,000 cells total) into the right caudate-putamen. Coordinates: 3 mm to the right from bregma, on top of the coronal suture, and 3.5 mm depth. Injection rate: ~30 second/uL. For treatment studies, eight mice were used for each group for LN229 studies and nine mice per group for U251 studies. Treatments began when tumors entered the log-phase of growth as measured by luminescence, for the LN229 experiment on Day 21 and for U251 experiments on Day 14.\nDosing levels and frequency are described in the figure legends.\nFor bioluminescence imaging (BLI), mice were anesthetized as above, then administered 150 mg/kg of luciferin (D-luciferin potassium salt, Gold Biotechnology, St. Louis, MO) via intraperitoneal injection. Ten minutes after luciferin injection, mice were examined for tumor bioluminescence with an IVIS Lumina imaging station and Living Image software (Caliper Life Sciences, Alameda, CA), and regions of interest were recorded as photons per second per steradian per square cm."}, "[9]": {"experiment": "Microscopic evaluation of brain tissue after dosing rodents", "format": "in vivo", "details": "rodents dosed with high levels"}, "[10]": {"details": "2 mg/kg IV once every two weeks"}, "[11]": {"details": "4 mg/kg IV once every two weeks"}, "[12]": {"details": "8 mg/kg IV once every two weeks"}},
  "data": [
    {"smiles": "Cc1ccc(N(CCCl)CCCl)cc1C[C@H](N)CC(=O)O", "note": "[QBS10072S, (+)-(3S)-amino-4-[5-[bis(2-chloroethyl)amino]-2-methyl-phenyl]butanoic acid]", "values": [
      {"measurement": "IC50", "setting": "[1]; [3H]-gabapentin, LLC-PK1 LAT1-expressing cells, 15 minutes at room temperature, read-out: IC50, inhibition of substrate transport (LAT1)", "result": 21, "unit": "µM"},
      {"measurement": "selectivity LAT1 vs. LAT2 in transport assays", "setting": "[1]; ratio of IC50s LAT2/LAT1", "result": 50, "unit": "fold"},
      {"measurement": "CC50", "setting": "[2]", "result": "12 ± 2", "unit": "µM"},
      {"measurement": "CC50 at 30 min", "setting": "[3]", "result": "> 10", "unit": "µM"},
      {"measurement": "phosphorylation of H2AX", "setting": "[4]", "result": "dose-dependent phosphorylation of H2AX"},
      {"measurement": "phosphorylation of H2AX", "setting": "[5]", "result": "dose-dependent phosphorylation of H2AX"},
      {"measurement": "DDR pathway activation (phospho-H2AX)", "setting": "[6]", "result": "significantly lower DDR pathway activation"},
      {"measurement": "body weights", "setting": "[7]", "result": "not affected"},
      {"measurement": "white blood cell counts", "setting": "[7]", "result": "not affected"},
      {"measurement": "median survival time", "setting": "[8]; [10]", "result": 66.5, "unit": "days"},
      {"measurement": "median survival time", "setting": "[8]; [11]", "result": 71, "unit": "days"},
      {"measurement": "median survival time", "setting": "[8]; [12]", "result": 74, "unit": "days"},
      {"measurement": "%TGI", "setting": "[8]; [10]", "result": 72, "unit": "%"},
      {"measurement": "%TGI", "setting": "[8]; [11]", "result": 73, "unit": "%"},
      {"measurement": "%TGI", "setting": "[8]; [12]", "result": 84, "unit": "%"},
      {"measurement": "alterations of the BBB, microscopic evaluation of brain tissue", "setting": "[9]", "result": "no alterations of the BBB"}
    ]}
  ]
}
